Experimental data: PMC8617507 (Proceedings of the National Academy of Sciences of the …, 2021)
Where “and” joins values, the source holds several entries; their conditions need not be identical. Equal values may be shown once. Read-outs that look alike come from different tables or passages of the source.

How the values were obtained:
B. subtilis 168 = test: Bacterial cell wall integrity assay; assay type: cell-based, Bacillus subtilis; settings: 30 min exposure; phase-contrast microscopy
S. pneumoniae T4 = test: Lysis and killing kinetics; settings: THCz-1 5.1 µg/mL, penicillin G 0.06 μg/mL, tetracycline 2 μg/mL
[1] = system: B. subtilis PypuA-lacZ (cell wall) bioreporter; test: β-Galactosidase reporter assay, cell wall reporter; assay type: cell-based, Bacillus subtilis; settings: 10 µg THCz-1, 20 µg THCz-40, 80 µg THCz-39, 100 µg THCz-5 spotted on agar
S. pneumoniae = test: MIC, broth microdilution; assay type: cell-based, Streptococcus pneumoniae; settings: for reduction in MIC in comparison to THCz-1: S. pneumoniae T4, vs. original screening hit THCz-1; for MIC: Streptococcus pneumoniae, S. pneumoniae T4 in supplemented C+Y medium, most abundant MIC, Table 2
[2] = system: Lung epithelial A549 cells; test: cells; settings: Homo sapiens
PBP2 = test: PBP2-catalyzed transglycosylation of lipid II in vitro; assay type: biochemical, S. aureus; settings: compared to THCz-1 and THCz-40
[3] = system: Lung epithelial A549 cells
[4] = system: B. subtilis PliaI-lux LiaRS bioreporter; test: Luciferase reporter assay; assay type: cell-based, Bacillus subtilis; settings: 2 µg/mL THCz-1, 128 µg/mL THCz-5, 8 µg/mL THCz-39, 4 µg/mL THCz-40
B. subtilis GFP-MinD = test: MinD delocalization studies; assay type: cell-based, Bacillus subtilis; settings: within 5 min

Row | Compound | cell shape deformations / cell membrane blebbing (B. subtilis 168) | induction of the cell wall responsive reporter strain [1] | MIC (S. pneumoniae) | IC50 [2] | other results
1 | bacitracin | Membrane blebbing was also observed |  |  |  | 
2 | CN(C)[C@@H]1C(O)=C(C(N)=O)C(=O)[C@@]2(O)C(O)=C3C(=O)c4c(O)cccc4[C@@](C)(O)[C@H]3C[C@@H]12 [Tet, tetracycline] |  |  |  |  | lysis kinetics (S. pneumoniae T4): growth-inhibitory phenotype without any prominent lysis
3 | Cc1ccc2[nH]c3c(c2c1)CCCC3NCCc1ccc(O)cc1 (centres unmarked) [THCz-39] | induced characteristic cell shape deformations | specifically induced | 6.3 µM to 12.5 µM and 2 µg/mL to 4 µg/mL | 33.4 µM and 10.7 µg/mL | reduction in MIC in comparison to THCz-1 (S. pneumoniae): twofold to fourfold; higher concentration required for full inhibition of the PBP2-catalyzed reaction (PBP2): fourfold
4 | c1ccc(CCNC2CCCc3c2[nH]c2ccccc32)cc1 (centres unmarked) [THCz-19] |  |  | 6.3 µM and 1.9 µg/mL | 22.2 µM and 6.8 µg/mL | 
5 | c1ccc(CCNC2CCCc3c2oc2ccc(-c4ccccc4)cc32)cc1 (centres unmarked) [THCz-6] |  |  | 50 µM and 18.4 µg/mL | 134 µM and 49.3 µg/mL | increase of IC50 (cytotoxicity) ([3]; THCz-6 vs. THCz-2): about sevenfold
6 | Cc1ccc2[nH]c3c(c2c1)CCCC3NCCc1ccc(Br)cc1 (centres unmarked) [THCz-40] | induced characteristic cell shape deformations | specifically induced | 6.3 µM and 2.4 µg/mL | 28 µM and 10.7 µg/mL | reduction in MIC in comparison to THCz-1 (S. pneumoniae): twofold to fourfold
7 | CN[C@H](CC(C)C)C(=O)N[C@H]1C(=O)N[C@@H](CC(N)=O)C(=O)N[C@H]2C(=O)N[C@H]3C(=O)N[C@H](C(=O)N[C@H](C(=O)O)c4cc(O)cc(O)c4-c4cc3ccc4O)[C@H](O)c3ccc(c(Cl)c3)Oc3cc2cc(c3O[C@@H]2O[C@H](CO)[C@@H](O)[C@H](O)[C@H]2O[C@H]2C[C@](C)(N)[C@H](O)[C@H](C)O2)Oc2ccc(cc2Cl)[C@H]1O [vancomycin] | Membrane blebbing was also observed |  |  |  | 
8 | c1ccc(CCOC2CCCc3c2[nH]c2ccccc32)cc1 (centres unmarked) [THCz-5] |  | but not THCz-5 | > 100 µM and > 29.1 µg/mL | 141 µM and 41 µg/mL | induction of PliaI-lux bioluminescence (LiaRS stress response) [4]: except for the inactive analog THCz-5; increase of IC50 (cytotoxicity) ([3]; THCz-5 vs. THCz-19): about sixfold; delocalization of GFP-MinD (membrane depolarization) (B. subtilis GFP-MinD): MinD delocalization was also observed
9 | nisin (ITSISLCTPGCKTGALMGCNMKTATCHCSIHVSK; not fully specified; Lantibiotic nisin-A; UniProt P13068 24-57, looked up) | Membrane blebbing was also observed |  |  |  | 
